Values joined by “and” are separate entries in the source; they are usually repeats but may differ in a detail not shown here. Equal values may be shown once. Read-outs that look alike come from different tables or passages of the source. Where a SMILES comes first, the peptide text is derived from it. Bridges are numbered along the chain shown (N, C = ends). [ ]: non-standard residue; d: D form. Nle = CCCC[C@H](N)C(=O)O
Molecular target: VEGF (Homo sapiens, UniProt P15692)
Conditions: for Δ(ΔG 20 °C) / Δ(ΔH 20 °C) / Δ(‐TΔS) 20 °C / Δ(ΔG 37 °C) / Δ(ΔH 37 °C) / Δ(‐TΔS) 37 °C / Δ(ΔCp): ± at P=95 %; for ΔG / −TΔS / ΔH / ΔCp: ITC, 95 % confidence interval in brackets; for ΔG / −TΔS / ΔH: 50 mM HEPES/NaOH, 150 mM NaCl, pH 7.5, first binding site; for ΔG: calculated from Kd (Eq. 1); for −TΔS: calculated from ΔG and ΔH (Eq. 2); for ΔH: normalised on reverse titrations; for ΔCp: heat capacity change on binding from ΔH at 20 °C and 37 °C (Eq. 3)
[1] = 20 °C, peptide 2 minus peptide 1 (pair 2–1)
[2] = 20 °C, peptide 2 minus peptide 3 (pair 2–3)
[3] = 37 °C, peptide 2 minus peptide 1 (pair 2–1)
[4] = 37 °C, peptide 2 minus peptide 3 (pair 2–3)
[5] = 20 °C, bicyclic peptide minus its monocyclic counterpart
[6] = 37 °C, bicyclic peptide minus its monocyclic counterpart
[7] = bicyclic peptide minus its monocyclic counterpart
[8] = 20 °C, monocyclic peptide minus peptide 4 (pairs 1–4, 3–4)
[9] = 37 °C, monocyclic peptide minus peptide 4 (pairs 1–4, 3–4)

Chain of VEGF (P15692 219-313): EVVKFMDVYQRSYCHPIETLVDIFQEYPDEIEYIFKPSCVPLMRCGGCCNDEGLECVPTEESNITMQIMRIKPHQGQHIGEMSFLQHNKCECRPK

| ΔG (20 °C) | −TΔS (20 °C) | ΔG (37 °C) | −TΔS (37 °C) | ΔH (37 °C) | ΔCp | Δ(ΔH 20 °C) [5] [kcal⋅mol^−1] | Δ(‐TΔS) 20 °C [5] [kcal⋅mol^−1] | Δ(ΔH 37 °C) [6] [kcal⋅mol^−1] | Δ(‐TΔS) 37 °C [6] [kcal⋅mol^−1] | ΔH (20 °C) | Δ(ΔCp) [7] [kcal⋅mol^−1.K^−1] | SMILES | also measured |
| --- | --- | --- | --- | --- | --- | --- | --- | --- | --- | --- | --- | --- | --- |
| −9.13 [−9.21; −9.05] kcal⋅mol^−1 | 6.7 [6.3; 7.1] kcal⋅mol^−1 | −8.76 [−8.82; −8.70] kcal⋅mol^−1 | 13.3 [12.7; 13.9] kcal⋅mol^−1 | −22.0 [−22.6; −21.5] kcal⋅mol^−1 | −0.36 [−0.40; −0.32] kcal⋅mol^−1.K^−1 |  |  |  |  |  |  | CCCC[C@@H]1NC(=O)[C@H](C(C)C)NC(=O)[C@H](Cc2c[nH]cn2)NC(=O)[C@H]([C@@H](C)CC)NC(=O)[C@H](CC(=O)O)NC(=O)[C@@H](N)CSSC[C@@H](C(=O)N[C@@H](Cc2ccccc2)C(=O)N[C@@H](CCC(=O)O)C(=O)N[C@@H](CCCCN)C(=O)N[C@@H](CC(C)C)C(N)=O)NC(=O)[C@H](CC(=O)O)NC(=O)[C@H](Cc2c[nH]c3ccccc23)NC(=O)[C@H](CCC(=O)O)NC(=O)[C@H](Cc2c[nH]c3ccccc23)NC1=O [compound 2] | Δ(ΔG 20 °C) [1]: −0.08±0.12 kcal⋅mol^−1; Δ(ΔH 20 °C) [1]: 2.0 ± 0.6 kcal⋅mol^−1; Δ(ΔG 20 °C) [2]: 0.3 ± 0.2 kcal⋅mol^−1 and 0.33±0.12 kcal⋅mol^−1; Δ(ΔH 20 °C) [2]: 1.4 ± 0.6 kcal⋅mol^−1; Δ(‐TΔS) 20 °C [2]: -1.0 kcal⋅mol^−1 and −1.0±0.8 kcal⋅mol^−1; Δ(ΔG 37 °C) [3]: −0.25±0.08 kcal⋅mol^−1; Δ(ΔH 37 °C) [3]: 0.7 ± 0.7 kcal⋅mol^−1; Δ(‐TΔS) 37 °C [3]: -1.0 ± 0.8 kcal⋅mol^−1; Δ(ΔG 37 °C) [4]: 0.3 ± 0.1 kcal⋅mol^−1 and 0.34±0.08 kcal⋅mol^−1; Δ(ΔH 37 °C) [4]: 1.0 ± 0.7 kcal⋅mol^−1; Δ(‐TΔS) 37 °C [4]: -0.6 ± 0.8 kcal⋅mol^−1; Δ(ΔCp) (peptide 2 minus peptide 1 (pair 2–1)): −0.07±0.05 kcal⋅mol^−1.K^−1; Δ(ΔCp) (peptide 2 minus peptide 3 (pair 2–3)): −0.02±0.05 kcal⋅mol^−1.K^−1 |
| −.89 [−10.01; −9.78] kcal⋅mol^−1 | 6.1 [5.6; 6.5] kcal⋅mol^−1 | −9.61 [−9.71; −9.52] kcal⋅mol^−1 | 12.8 [12.3; 13.2] kcal⋅mol^−1 | −22.4 [−22.8; −22.0] kcal⋅mol^−1 | −0.38 [−0.41; −0.35] kcal⋅mol^−1.K^−1 | 1.2±0.7 | −1.6±0.8 | 0.6±0.6 | −1.1±0.7 | −16.0 [−16.3; −15.6] kcal⋅mol^−1 | −0.04±0.05 | CCCC[C@@H]1NC(=O)[C@H](C(C)C)NC(=O)[C@H](Cc2c[nH]cn2)NC(=O)[C@H]([C@@H](C)CC)NC(=O)[C@H](CC(=O)O)NC(=O)[C@@H](N)CSSC[C@@H]2NC(=O)[C@H](CCC(=O)NCCCC[C@@H](C(=O)N[C@@H](CC(C)C)C(N)=O)NC(=O)[C@H](CCC(=O)O)NC(=O)[C@H](Cc3ccccc3)NC2=O)NC(=O)[C@H](Cc2c[nH]c3ccccc23)NC(=O)[C@H](CCC(=O)O)NC(=O)[C@H](Cc2c[nH]c3ccccc23)NC1=O [3 c] |  |
| −9.16 [−9.27; −9.05] kcal⋅mol^−1 | 6.8 [6.1; 7.6] kcal⋅mol^−1 | −8.68 [−8.79; −8.56] kcal⋅mol^−1 | 13.5 [12.5; 14.7] kcal⋅mol^−1 | −22.2 [−23.2; −21.3] kcal⋅mol^−1 | −0.37 [−0.43; −0.31] kcal⋅mol^−1.K^−1 | 1.4±0.7 | −1.3±0.9 | 0.8±1.2 | −0.8±1.3 | −16.0 [−16.6; −15.4] kcal⋅mol^−1 | −0.04±0.08 | CCCC[C@@H]1NC(=O)[C@H](C(C)C)NC(=O)[C@H](Cc2c[nH]cn2)NC(=O)[C@H]([C@@H](C)CC)NC(=O)[C@H](CC(=O)O)NC(=O)[C@@H](N)CSSC[C@@H]2NC(=O)[C@H](CCCCNC(=O)CC[C@@H](C(=O)N[C@@H](CC(C)C)C(N)=O)NC(=O)[C@H](CCC(=O)O)NC(=O)[C@H](Cc3ccccc3)NC2=O)NC(=O)[C@H](Cc2c[nH]c3ccccc23)NC(=O)[C@H](CCC(=O)O)NC(=O)[C@H](Cc2c[nH]c3ccccc23)NC1=O [4 c] (H-CDIHV[Nle]WEWKCFEEL-NH2; disulfide 1-11; lactam 10-14) | Δ(ΔG 20 °C) (20 °C, bicyclic peptide minus its monocyclic counterpart (1 c–1, 2 c–2, 3 c–3, 4 c–4)): 0.06±0.12 kcal⋅mol^−1; Δ(ΔG 37 °C) [6]: 0.04±0.14 kcal⋅mol^−1 |
| −9.22 [−9.27; −9.16] kcal⋅mol^−1 | 8.2 [7.8; 8.5] kcal⋅mol^−1 | −8.71 [−8.80; −8.63] kcal⋅mol^−1 | 14.3 [13.5; 15.1] kcal⋅mol^−1 | −23.0 [−23.7; −22.3] kcal⋅mol^−1 | −0.33 [−0.38; −0.28] kcal⋅mol^−1.K^−1 |  |  |  |  | −17.4 [−17.7; −17.1] kcal⋅mol^−1 |  | CCCC[C@@H]1NC(=O)[C@H](C(C)C)NC(=O)[C@H](Cc2c[nH]cn2)NC(=O)[C@H]([C@@H](C)CC)NC(=O)[C@H](CC(=O)O)NC(=O)[C@@H](N)CSSC[C@@H](C(=O)N[C@@H](Cc2ccccc2)C(=O)N[C@@H](CCC(=O)O)C(=O)N[C@@H](CCC(=O)O)C(=O)N[C@@H](CC(C)C)C(N)=O)NC(=O)[C@H](CCCCN)NC(=O)[C@H](Cc2c[nH]c3ccccc23)NC(=O)[C@H](CCC(=O)O)NC(=O)[C@H](Cc2c[nH]c3ccccc23)NC1=O [compound 4] (H-CDIHV[Nle]WEWKCFEEL-NH2; disulfide 1-11) |  |
| −9.05 [−9.15; −8.97] kcal⋅mol^−1 | 8.7 [8.2; 9.3] kcal⋅mol^−1 | −8.51 [−8.56; −8.46] kcal⋅mol^−1 | 14.2 [13.8; 14.7] kcal⋅mol^−1 | −22.8 [−23.1; −22.4] kcal⋅mol^−1 | −0.29 [−0.32; −0.26] kcal⋅mol^−1.K^−1 |  |  |  |  |  |  | CCCC[C@@H]1NC(=O)[C@H](C(C)C)NC(=O)[C@H](Cc2c[nH]cn2)NC(=O)[C@H]([C@@H](C)CC)NC(=O)[C@H](CC(=O)O)NC(=O)[C@@H](N)CSSC[C@@H](C(=O)N[C@@H](Cc2ccccc2)C(=O)N[C@@H](CCC(=O)O)C(=O)N[C@@H](CC(=O)O)C(=O)N[C@@H](CC(C)C)C(N)=O)NC(=O)[C@H](CCCCN)NC(=O)[C@H](Cc2c[nH]c3ccccc23)NC(=O)[C@H](CCC(=O)O)NC(=O)[C@H](Cc2c[nH]c3ccccc23)NC1=O [compound 1] (H-CDIHV[Nle]WEWKCFEDL-NH2; disulfide 1-11) | Δ(ΔG 20 °C) [8]: 0.2 ± 0.1 kcal⋅mol^−1 and 0.16±0.10 kcal⋅mol^−1; Δ(ΔH 20 °C) [8]: -0.4 ± 0.6 kcal⋅mol^−1; Δ(‐TΔS) 20 °C [8]: 0.6 ± 0.7 kcal⋅mol^−1; Δ(ΔG 37 °C) [9]: 0.2 ± 0.1 kcal⋅mol^−1 and 0.20±0.09 kcal⋅mol^−1; Δ(ΔH 37 °C) [9]: 0.2 ± 0.8 kcal⋅mol^−1; Δ(‐TΔS) 37 °C [9]: 0.0 ± 1.0 kcal⋅mol^−1; Δ(ΔCp) (monocyclic peptide minus peptide 4 (pairs 1–4, 3–4)): 0.04±0.06 kcal⋅mol^−1.K^−1 |

From article PMC9543606, “Structural and ITC Characterization of Peptide‐Protein Binding: Thermodynamic Consequences of Cyclization Constraints, a Case Study on Vascular Endothelial Growth Factor Ligands” (Chemistry (Weinheim an Der Bergstrasse, Germany), 2022)
